Experimental data taken from paper PMC12198292, “Advancing in vitro assessment of iodide uptake inhibition: integrating a novel biotransformation pretreatment step” (Archives of Toxicology, 2025).
Where “and” joins values, the source holds several entries; their conditions need not be identical. Equal entries are not always repeated. Where two headings read alike, the source gives them in different places.

Assays:
human NIS [1] = molecular target: T1, human NIS (Homo sapiens, UniProt Q92911); assay: NIS-inhibition assay (iodide uptake, Sandell–Kolthoff reaction) on HEK293T NIS 02; type: cell-based; parameters: host or cells: HEK293T (lentiviral transduction, puromycin selection, GFP sorting; lines NIS 02 and NIS C)
T1 sequence (Q92911 1-643): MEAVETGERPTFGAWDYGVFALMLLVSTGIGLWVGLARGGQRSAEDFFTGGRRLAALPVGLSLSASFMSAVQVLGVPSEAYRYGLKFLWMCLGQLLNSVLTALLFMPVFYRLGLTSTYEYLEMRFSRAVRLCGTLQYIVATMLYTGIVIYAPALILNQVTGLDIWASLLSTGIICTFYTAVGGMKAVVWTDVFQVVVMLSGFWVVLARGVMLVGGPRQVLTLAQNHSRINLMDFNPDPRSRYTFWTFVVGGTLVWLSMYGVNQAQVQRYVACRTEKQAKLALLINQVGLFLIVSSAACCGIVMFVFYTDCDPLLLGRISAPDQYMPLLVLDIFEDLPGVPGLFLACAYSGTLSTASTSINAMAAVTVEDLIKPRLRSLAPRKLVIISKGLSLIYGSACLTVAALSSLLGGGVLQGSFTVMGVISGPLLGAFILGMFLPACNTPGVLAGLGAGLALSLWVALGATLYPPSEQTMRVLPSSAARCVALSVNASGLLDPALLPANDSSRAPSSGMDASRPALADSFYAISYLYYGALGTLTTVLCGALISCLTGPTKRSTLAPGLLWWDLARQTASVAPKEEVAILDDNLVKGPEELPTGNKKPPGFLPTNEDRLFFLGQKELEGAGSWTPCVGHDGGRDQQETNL

human NIS [2] = molecular target: T1, human NIS; assay: NIS-inhibition assay (iodide uptake, Sandell–Kolthoff reaction) on HEK293T NIS C; type: cell-based; parameters: host or cells: HEK293T (lentiviral transduction, puromycin selection, GFP sorting; lines NIS 02 and NIS C)
HEK293T NIS02 cells = assay: Neutral red uptake viability assay, HEK293T NIS02; settings: 100 µM
human NIS [3] = molecular target: T1, human NIS; parameters: host or cells: HEK293T (lentiviral transduction, puromycin selection, GFP sorting; lines NIS 02 and NIS C); settings: cited from earlier work; for IC20: read-out: Data from literature NIS IC20
in vitro [4] = settings: human
NIS [5] = molecular target: T2, NIS (Rattus norvegicus, UniProt Q63008); assay: NIS-inhibition assay (iodide uptake, Sandell–Kolthoff reaction) on FRTL-5; type: cell-based; settings: mean ± SD, ≥ 3 independent experiments; 2 h exposure; SK reaction
T2 construct: the endogenously NIS-expressing rat FRTL-5 cell line; host or cells: FRTL-5 (CVCL_0265)
T2 sequence (Q63008 1-618): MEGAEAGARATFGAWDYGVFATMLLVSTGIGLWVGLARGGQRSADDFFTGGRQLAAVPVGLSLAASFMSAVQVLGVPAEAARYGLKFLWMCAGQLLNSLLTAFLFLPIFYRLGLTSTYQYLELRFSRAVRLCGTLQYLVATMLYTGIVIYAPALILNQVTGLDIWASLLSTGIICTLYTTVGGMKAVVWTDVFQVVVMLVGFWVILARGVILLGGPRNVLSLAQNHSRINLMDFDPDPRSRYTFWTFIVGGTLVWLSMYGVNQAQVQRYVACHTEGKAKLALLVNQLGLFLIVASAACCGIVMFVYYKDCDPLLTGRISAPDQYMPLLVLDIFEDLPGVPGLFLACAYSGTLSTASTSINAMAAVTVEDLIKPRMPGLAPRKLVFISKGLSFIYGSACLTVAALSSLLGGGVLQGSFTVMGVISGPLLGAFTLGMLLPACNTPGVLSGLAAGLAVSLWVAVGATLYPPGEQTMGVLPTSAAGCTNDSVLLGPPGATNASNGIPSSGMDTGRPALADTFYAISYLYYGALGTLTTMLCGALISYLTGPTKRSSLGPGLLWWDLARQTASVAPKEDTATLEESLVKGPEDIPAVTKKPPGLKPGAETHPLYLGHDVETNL

NIS [6] = molecular target: T2, NIS; settings: FRTL-5, SK, read-out: Data from literature NIS IC50, cited from earlier work
human NIS [7] = molecular target: T1, human NIS; assay: Biotransformation (BTS, rat S9)-augmented NIS-inhibition assay, HEK293T NIS02; settings: for effect of fully active BTS (W/S9, W/cof) on NIS inhibition versus control setups: two-way ANOVA, p < 0.05
[8] = parameters: method as in PubChem https://pubchem.ncbi.nlm.nih.gov/; settings: ref PubChem https://pubchem.ncbi.nlm.nih.gov/; cited from earlier work
in vitro [9] = settings: human, HEK293T NIS C cells
in vitro [10] = settings: rat, FRTL-5 cells
[11] = parameters: method as in PubChem https://pubchem.ncbi.nlm.nih.gov/; settings: ref PubChem https://pubchem.ncbi.nlm.nih.gov/; cited from earlier work; remark: listed apart in the source
human NIS [12] = molecular target: T1, human NIS
whale NIS = tested on: whale NIS; parameters: method as in Concilio et al., 2020; settings: HeLa transfected with whale NIS; RAIU; ref Concilio et al., 2020; read-out: Data from literature NIS IC50; cited from earlier work
zebrafish NIS = tested on: zebrafish NIS; parameters: method as in Concilio et al., 2020; settings: HeLa transfected with zebrafish NIS; RAIU; ref Concilio et al., 2020; read-out: Data from literature NIS IC50; cited from earlier work
human NIS [13] = molecular target: T1, human NIS; parameters: method as in Dong et al., 2019; settings: MCF7hNIS, SK, ref Dong et al., 2019, cited from earlier work
NIS [14] = molecular target: T2, NIS; settings: FRTL-5, RAIU, read-out: Data from literature NIS IC50, cited from earlier work
[15] = ref PubChem https://pubchem.ncbi.nlm.nih.gov/; cited from earlier work
hNIS = tested on: hNIS; parameters: method as in Concilio et al., 2020; settings: HeLa transfected with hNIS; RAIU; ref Concilio et al., 2020; read-out: Data from literature NIS IC50; cited from earlier work
human NIS [16] = molecular target: T1, human NIS; parameters: host or cells: HEK293T (lentiviral transduction, puromycin selection, GFP sorting; lines NIS 02 and NIS C); method as in Dong et al., 2019; settings: hNIS-HEK293T-EPA, SK, ref Dong et al., 2019, cited from earlier work
[17] = mean ± SD, ≥ 3 independent experiments, 2 h exposure, SK reaction, read-out: NIS IC50 HEK293T NIS 02
[18] = mean ± SD, ≥ 3 independent experiments, 2 h exposure, SK reaction, read-out: NIS IC50 HEK293T NIS C
[19] = hNIS-HEK293T-EPA, RAIU, ref Hallinger et al., 2017
[20] = read-out: Data from literature NIS IC20
[21] = read-out: Data from literature NIS IC50

## Oc1cc(Cl)ccc1Oc1ccc(Cl)cc1Cl [TCS, Triclosan]
Human NIS [1]; NIS IC50 HEK293T NIS 02
  IC50: 18.5 ± 9.9 µM
Human NIS [2]
  IC50: 34.8 ± 23.5 µM
HEK293T NIS02 cells
  cytotoxicity in the standard NIS assay (NR and CTG): cytotoxic
Human NIS [3]
  IC20: 2.6 µM
In vitro [4]
  IC20 at 2 h: 45.9 µM
NIS [5]
  IC50: 39.3 ± 18.9 µM
NIS [6]; ref Wu et al., 2016
  IC50: 21.3 µM
Human NIS [7]
  increase of IC20 by preincubation in fully active BTS setup compared to the denatured BTS setup: approximately 5 fold
  effect of fully active BTS (W/S9, W/cof) on NIS inhibition versus control setups: statistically significant reduction in NIS inhibition
Human NIS [7]; read-out: NIS inhibition IC20 D S9, W/cof, 5 h preincubation with denatured S9 and cofactors, three independent experiments
  IC20: 1.07 ± 0.65 µM
Human NIS [7]; read-out: NIS inhibition IC20 SM
  IC20: 1.78 ± 1.12 µM
Human NIS [7]; read-out: NIS inhibition IC20 W/O S9, W/cof, 5 h preincubation without S9 fraction, with all cofactors, three independent experiments
  IC20: 1.02 ± 0.82 µM

## CC(C)(c1ccc(O)cc1)c1ccc(O)cc1 [BPA, Bisphenol A]
Human NIS [1]; [17]
  IC50: 111 ± 75 µM
Human NIS [2]; [18]
  IC50: 309 ± 2.5 µM
[8]
  log Kow: 3.32
Human NIS [3]; [19]
  IC20: 35.5 µM
Human NIS [3]; hNIS-HEK293T-EPA, RAIU, ref US-EPA, 2024
  IC20: 24.3 ± 21.6 µM
Human NIS [3]; hNIS-HEK293T-EPA, RAIU, ref Wang et al., 2018
  Data from literature NIS IC50: n.e.
Human NIS [3]; hNIS-HEK293T-EPA, RAIU, ref Wang et al., 2019
  IC20: 19.5 µM
In vitro [9]
  IC20 at 2 h: 181 µM
In vitro [10]
  IC20 at 2 h: 364 µM
[11]
  Henry‘s law: 4.0x10^-11 atm- m^3/mol
Human NIS [12]
  effect of fully active BTS (W/S9, W/cof) on NIS inhibition versus control setups: statistically significant reduction in NIS inhibition
NIS [5]
  IC50: 302 ± 197 µM
NIS [6]; ref Wu et al., 2016
  IC50: 112 µM
Human NIS [7]; W/S9, W/cof vs D S9, W/cof
  increase of IC20 by preincubation in fully active BTS setup compared to the denatured BTS setup: ~6.3 fold
Human NIS [7]; read-out: NIS inhibition IC20 SM, standard method without preincubation, run in parallel, three independent experiments
  IC20: 4.7 ± 6 µM

## [O-][Cl+3]([O-])([O-])O [PCL, Perchlorate, reference compound]
Whale NIS
  IC50: 4.6 µM and 4.59 µM
Zebrafish NIS
  IC50: 0.08 µM
Human NIS [1]; [17]
  IC50: 1.65 ± 0.57 µM
Human NIS [2]; [18]
  IC50: 14.9 ± 8.3 µM
Human NIS [13]; [20]
  IC20: 0.2 µM
Human NIS [13]; [21]
  IC50: 0.5 µM
NIS [14]; ref Buckalew et al., 2020
  IC50: 0.2 µM
NIS [14]; ref Waltz et al., 2010
  IC50: 0.14 µM
[15]
  solubility in water: >2000 mg/mL
Human NIS [3]; hNIS-HEK293T-EPA, RAIU, ref Dong et al., 2019
  IC20: 0.1 µM
Human NIS [3]; hNIS-HEK293T-EPA, RAIU, ref Dong et al., 2019, read-out: Data from literature NIS IC50
  IC50: 0.53 µM
Human NIS [3]; [19]
  IC20: 0.2 µM
hNIS
  IC50: 1.6 µM and 1.56 µM
Human NIS [16]; [20]
  IC20: 0.2 µM
Human NIS [16]; [21]
  IC50: 0.8 µM
NIS [5]
  IC50: 5.1 ± 4.6 µM
NIS [6]; ref Waltz et al., 2010
  IC50: 0.1 µM
NIS [6]; ref Wu et al., 2016
  IC50: 0.3 µM
Human NIS [7]
  effect of fully active BTS (W/S9, W/cof) on NIS inhibition versus control setups: no significant differences were observed
